Measured values as given in patent US9427456B2, “Peptide therapy for increasing platelet levels” (Biokine Therapeutics Ltd., priority 2009, dated 2016).
“Also recorded” adds a separate entry of the source.

B1: granulocyte-colony stimulating factor (protein, UniProt P09919 31-207, looked up)
Granulocyte …: TPLGPASSLPQSFLLKCLEQVRKIQGDGAALQEKLVSECATYKLCHPEELVLLGHSLGIPWAPLSSCPSQALQLAGCLSQLHSGLFLYQGLLQALEGISPELGPTLDTLQLDVADFATTIWQQMEELGMAPALQPTQGAMPAFASAFQRRAGGVLVASHLQSFLEVSYRVLRHLAQP
notes: granulocyte-colony stimulating factor, s.c. injected daily at 5 μg/mouse

Columns and labels:
blood platelets [1] = assay: Chemotherapy (5FU)-induced thrombocytopenia model in mice; assay type: in vivo; conditions: for Levels of platelets in blood before and after 5FU: 5FU 150 mg/kg i.p. day 0, peptide 5 mg/Kg s.c. daily 5 days before and from day 1 after 5FU, G-CSF 5 μg/mouse daily from day 1, TPO 0.5 μg/mouse 3 days before 5FU, FIG. 4-6
Protocol: In the chemotherapy experiments 5-fluorouracil (5FU) at 150 mg/kg was dissolved in saline and injected intraperitoneally (on day 0). The mice were treated with 4F-benzoyl-TN14003 (5 mg/Kg) for 5 days or with TPO (0.5 μg/mouse) for 3 days before treatment with 5FU. 4F-benzoyl-TN14003 treated mice were further treated daily with 4F-benzoyl-TN14003 (5 mg/Kg) one day after 5FU administration and the treatment was continued until the end of the experiment. Blood samples were collected 1 hr following 4F-benzoyl-TN14003 administration or control (PBS) injection]; total blood counts were tested by American Medical Laboratories, Israel. In some experiments, G-CSF was s.c. injected daily, one day after 5FU administration until the end of the experiment, at final concentration of 5 μg/mouse in total volume of 0.2 ml.
The platelet modulating effects were then examined in a chemotherapy-induced thrombocytopenia model in mice. In these experiments, 5-fluorouracil (“5FU”) at 150 mg/kg dissolved in saline was injected intraperitoneally to all mice (on day 0). Some of the mice were further treated with 4F-benzoyl-TN14003 (5 mg/Kg, once daily S.C. injections) for 5 days before treatment with 5FU, and Mice were further treated daily with 4F-benzoyl-TN14003 (5 mg/Kg) one day after 5FU and the treatment was continued until the end of the experiment. Blood samples were collected 1 hr following administration of 4F-benzoyl-TN14003 or control (PBS) injection. […] In FIG. 4, diamonds represent control (PBS treated) mice; open squares represent 4F-benzoyl-TN14003 treated mice.
Next, the effect of the peptide on mice treated with 5FU with or without G-CSF was examined. G-CSF administration (as daily S.C. injections, 5 μg/mouse) was initiated one day after 5FU treatment and continued until the end of the experiment. 5FU and 4F-benzoyl-TN14003 administration and blood sample collection were as specified above for FIG. 4. […] In FIG. 5, diamonds represent control (PBS treated) mice; open squares represent 4F-benzoyl-TN14003 treated mice; triangles represent G-CSF treated mice; and crosses represent mice treated with G-CSF and 4F-benzoyl-TN14003.
The activity of the peptide in the chemotherapy-induced thrombocytopenia model was then compared to that of TPO. In the TPO group, mice were treated with a single dose of TPO (0.5 μg/mouse) for 3 days before treatment with 5FU. 5FU and 4F-benzoyl-TN14003 administration and blood sample collection were as specified above for FIG. 4. […] In FIG. 6, diamonds represent control (PBS treated) mice; open squares represent 4F-benzoyl-TN14003 treated mice; and triangles represent TPO treated mice.

blood platelets [2] = assay: Blood platelet counts in healthy mice after s.c. injection; assay type: in vivo, C57BL/6 mice; conditions: for Platelets (×10^3): blood at day 5, s.c., 4F-benzoyl-TN14003 100 ug/mouse (5 mg/Kg) once a day for 5 days, TPO 0.5 ug/mouse 3 times once a day (days 3-5 in combination); for % increase (platelet counts): versus PBS control, day 5, same regimens as platelet counts
Protocol: Female C57BL/6 mice (7-8 weeks old) were purchased from Harlan Israel and maintained under specific pathogen-free conditions at the Hebrew University Animal Facility (Jerusalem, Israel).
(§1) 4F-benzoyl-TN14003 and Thrombopoietin were reconstituted in PBS at various concentrations. Mice were injected subcutaneously in a total volume of 200 μl. 4F-benzoyl-TN14003 (100 ug/mouse, 5 mg/Kg) was injected for 5 days, once a day and at day 5 blood was collected and tested for platelets counts and hematopoietic colonies were tested in the bone marrow. Thrombopoietin was injected 3 times once a day, at (0.5 ug/mouse), and blood was collected and tested for platelets counts and hematopoietic colonies were tested in the bone marrow at day 5. In another group 4F-benzoyl-TN14003 (100 ug/mouse) was injected for 5 days, once a day and at days 3, 4 and 5 mice were further injected with Thrombopoietin (namely 3 times once a day, at 0.5 ug/mouse). Blood was collected and tested for platelets counts and hematopoietic colonies were tested in the bone marrow at day 5. Control mice were injected with PBS at the appropriate volume and blood was collected and tested for platelets counts and hematopoietic colonies in the bone marrow at day 5.
In the experiments described in FIG. 2, mice were injected subcutaneously with 4F-benzoyl-TN14003 at a dose of 5 mg/kg, administered either as a once daily injection or divided into two doses administered b.i.d. Blood platelet levels were measured 1, 2 or 3 days later.
In FIG. 3, “Male control” and “Female control” indicate PBS-treated male and female mice, respectively; “Male+4FB-T140” and “Female+4FB-T140” indicate male or female mice treated with 4F-benzoyl-TN14003 (5 mg/kg)

blood platelets [3] = assay: Clinical study: single dose in Multiple Myeloma patients receiving Cyclophosphamide and G-CSF, blood platelet levels; assay type: in vivo, human
Protocol: A Phase […], non-Randomized, Open Label, Single Dose, Dose-Escalation, Safety Study of 4F-benzoyl-TN14003 was conducted in patients with Multiple Myeloma (MM) receiving G-CSF for inducing mobilization of progenitor stem cells from the Bone Marrow to the peripheral blood.
All eligible patients received, in an ambulatory setting, as part of their planned therapy: Cyclophosphamide—(the generic name for Cytoxan, Neosar), 4 gr/m^2 according to the accepted MM practice. G-CSF (neupogen) was initiated 5 days later and continued until the end of stem cell collection, administered SC at 5 μg/kg per day every day after 18:00. Monitoring the WBC and platelets was done after 7 and 10 days, and until stem cell collection. Stem cell collection was performed according to the protocol of WBC over 1,000 cells.
4F-benzoyl-TN14003 was injected after 10 days, as a single dose of 30, 100, 300 or 900 μg/Kg. The follow-up post injection included counting WBC and platelets levels at points of 30 min, 1 hr, 2 hr, 4 hr, 8 hr, 24 hr.
MM patients undergoing chemotherapy with Cyclophosphamide, received G-CSF according to a clinical protocol for inducing HPC mobilization for subsequent harvesting and transplantation. 10 days after Cyclophosphamide and G-CSF treatment, the patients received 4F-benzoyl-TN14003 injected at a dose of 0.9 mg/kg. […]

[4] = tested on: hematopoietic precursor cells in the bone marrow; assay: Hematopoietic progenitor cells (HPCs) colony-forming cell assay, bone marrow of treated mice; assay type: in vivo, C57BL/6 mice; conditions: bone marrow at day 5; colonies scored after seven days of culture; same regimens as Table 2
Protocol: as §1
In order to evaluate the number of progenitor cells in the Bone marrow, a colony-forming cell assay was used for the production of hematopoietic colonies following treatments. […] Seven days later, typical colonies were visually scored by morphologic criteria using a light microscope.

Molecule	Levels of platelets in blood before and after 5FU (blood platelets [1])	Platelet levels after 10 days of administration, compared with TPO and control (blood platelets [1]; 5FU model, FIG. 6)	Potency relative to TPO in enhancing platelet levels and reducing chemotherapy-induced thrombocytopenia (blood platelets [1]; thrombocytopenia induced by chemotherapy)	Blood platelet levels after a single injection (blood platelets [2]; 5 mg/kg s.c., once daily or divided b.i.d., measured 1, 2 or 3 days later, FIG. 2)	Blood platelet levels in male and female mice (blood platelets [2]; 5 mg/kg, measured 3 days post administration, FIG. 3)	Platelets (×10^3) (blood platelets [2])	Effect on TPO activity in enhancing platelets levels (blood platelets [2]; combination with TPO, mice, FIG. 1)	Potency relative to TPO in stimulating production of platelets (blood platelets [2]; healthy C57B1 mice)	% increase (platelet counts) (blood platelets [2]) [%]	Time after administration at which platelet increase could be detected (blood platelets [3]; 0.9 mg/kg single injection, MM patients) [min]	Number of platelets in the blood after single injection (blood platelets [3]; 0.9 mg/kg, 10 days after Cyclophosphamide and G-CSF, still observed after 1, 2, 4 or 8 hours, FIG. 7)	Colonies (HPC counts, colony forming cells in bone marrow) [4]
4F-benzoyl-Arg-Arg-Nal-Cys-Tyr-Cit-Lys-DLys-Pro-Tyr-Arg-Cit-Cys-Arg-NH2 [4F-benzoyl-TN14003]	enhanced the levels of platelets in blood before and after treatment with 5FU; also recorded: elevated blood platelet levels before or after 5FU administration	higher in 4F-benzoyl-TN14003-treated mice than in TPO-treated mice or control mice	more potent than TPO	significant elevation in blood platelet levels	enhanced blood platelet levels	1551 ×10^3	potentiates the activity of TPO in enhancing platelets levels in vivo	as potent as TPO	32	30	immediate increase in the number of platelets in the blood	148.2
Thrombopoietin [TPO]	elevated blood platelet levels before or after 5FU administration	–	–	–	–	1556 ×10^3	–	–	32	–	–	150.2
B1	no effect on blood platelet levels; also recorded: had no effect on platelet levels	–	–	–	–	–	–	–	–	–	–	–
